Laboratory results from patent publication US7932384B2, “Reverse-turn mimetics and method relating thereto” (Choongwae Pharma Corporation, priority 2001, dated 2011).

How the values were obtained:
survivin promoter = assay: Survivin luciferase reporter in SW480 cells; format: cell-based; details: SW480 cells, various concentrations
PCNA = assay: Real time RT-PCR gene expression, PCNA; format: cell-based; details: 25 μM, 24 hours; <0.5 significant decrease, >1.5 significant increase
Description: (§1) Real time reverse transcription-PCR analysis was performed according to the protocol provided with the SYBR Green PCR Master Mix Kit (Perkin Elmer Biosystems, Shelton, ST). […] The primers used for the RT-PCR reactions were [NT] and [NT].

[1] = system: PC-12 cells overexpressing PS-1/L286V; assay: Neurite outgrowth and differentiation of PC-12 PS-1/L286V cells; format: cell-based, Rat; details: PS-1/L286V mutant PC-12 cells, 10 μM plus NGF
Description: Cell Differentiation. Cell culture dishes were pre-coated overnight with 0.25 mg/ml collagen (Cohesion, CA), 10 μg/ml Poly-L-Lysine (Sigma-Aldrich, St. Louis, Mo.) and 12 μg/ml Polyethyleneimine (ICN, La Mesa, Calif.). Cells were cultured on coated dishes at 15,000 cells/cm^2, and differentiated into a neuron-like phenotype by incubation in medium with reduced serum (1% fetal bovine serum), containing 50 ng/ml nerve growth factor (NGF) (Sigma-Aldrich) for 10 days. NGF-containing medium was changed every 2-3 days.
(§2) Differentiated PC-12/L286V cells were treated with increasing concentrations of this compound for 4 hours. Transfection was then initiated after this treatment period.
Quantitation of Neurite Outgrowth. Cell counts were taken from six randomly chosen microscopic fields (10×). […] The number of cells with such outgrowths was then expressed as a percentage of the total number of cells. Values obtained were from duplicates of three independent experiments.

Antigen KI-67 = assay: Real time RT-PCR gene expression, Antigen KI-67; format: cell-based; details: 25 μM, 24 hours; <0.5 significant decrease, >1.5 significant increase
Description: as §1

cultured tumor cells [2] = assay: Cell death of cultured tumor cells; format: cell-based; details: 5.0 μM
[3] = system: TCF/β-catenin reporter gene transcription; assay: TOPFLASH luciferase assay in differentiated PC-12 PS-1/L286V cells; format: cell-based, Rat; details: PS-1/L286V mutant PC-12 cells, 10 μM plus NGF
Description: as §2
Transfection. PC-12 cells were cultured and differentiated on 60-mm dishes. At the end of the 10-day differentiation period, cells were transfected with 2 μg reporter constructs, TOPFLASH and FOPFLASH, per 60-mm dish. Transfections were performed using Superfect (Qiagen) according to manufacturer's instructions.
Luciferase Assays. Cells were lysed, 6 hours after transfections, in 100 μl of Cell Culture Lysis Reagent (Promega, Madison, Wis.), and scraped into microcentrifuge tubes. Tubes were then centrifuged briefly (about 10 seconds) at 12000 rpm to pellet cell debris. Luciferase activity was measured on 20 μl of cell lysate and 100 μl substrate from the Luciferase Assay System (Promega). Luciferase activity was measure using Packard LumiCount. (Hewlett Packard). Quantitation of luciferase was performed in triplicates, and repeated in at least three independent experiments.

cultured tumor cells [4] = assay: FACS analysis of cells in G0, cultured tumor cells; format: cell-based; details: 5 μM
GADPH = assay: Real time RT-PCR gene expression, GADPH; format: cell-based; details: 25 μM, 24 hours; <0.5 significant decrease, >1.5 significant increase
Description: as §1

[5] = system: Ephrin B2 (EphB2) receptor; assay: EphB2 receptor expression (immunofluorescence and RT-PCR) in PC-12 PS-1/L286V cells; format: cell-based, Rat; details: PS-1/L286V mutant PC-12 cells, 10 μM
Description: Immunofluorescence. Cells were plated at a density of 10,000 cells/cm^2 on sterile coated 22×22 mm coverslips in a 6-well culture plate. Differentiation was initiated, as previously described, for 10 days. The differentiated cells were then fixed in methanol for 15 minutes at −20° C. This is followed by a 15 minutes incubation with PBS+0.1% Triton X-100. The coverslips were incubated with antibodies raised against Ephrin B2 Receptor (Santa Cruz Biotechnology) and Gap-43 (Novus Biologicals) for 40 minutes at 37° C. After a series of washes with PBS-Triton X-100, secondary antibody conjugated to FITC (Jackson ImmunoResearch, Westgrove, Pa.) was applied. All slides images were acquired using a Nikon PCM2000 Laser Scanning Confocal Microscope mounted on a Nikon Eclipse E600 upright microscope (Nikon, Melville, N.Y.).
RT-PCR. To analyze the mRNA levels for Ephrin B2 (EphB2) receptor, total RNA was isolated using Trizol (Invitrogen-GIBCO-BRL, Baltimore, Md.) from differentiated cells. 2 μg RNA was reverse transcribed in a total volume of 20 μl with random hexamer (50 ng), and using the Superscript II reverse transcription system (Invitrogen-GIBCO-BRL), according to manufacturer's guidelines. PCR was carried out in a 50 μl volume containing 5 μl cDNA, 100 pmol primers, 100 μM dNTPs, 1×Taq buffer and 1.5 mM MgCl2. […]

GADD-153 = assay: Real time RT-PCR gene expression, GADD-153; format: cell-based; details: 25 μM, 24 hours; <0.5 significant decrease, >1.5 significant increase
Description: as §1

survivin = assay: Real time RT-PCR gene expression, Survivin; format: cell-based; details: 25 μM, 24 hours; <0.5 significant decrease, >1.5 significant increase
Description: as §1

SW480 cells = assay: Flow cytometric analysis (FACS) of cell cycle, SW480; format: cell-based; details: SW480, 25 μM, 24 hours
Description: For FACS analysis, approx. 5×10^6 cells from Compound D-treated or vehicle-treated were fixed with 70% chilled ethanol and stored at −20° C. for at least 30 minutes. The cells were washed once with 1×PBS and incubated with propidium iodine (PI) solution (85 μg/ml propidium iodine, 0.1% Nonidet P-40, 10 mg/ml RNAse) for 30 minutes at room temperature. 10,000 stained cells for each sample were acquired using Beckman Coulter EPICS XL-MCL Flow Cytometry and the percentage of cells in different phase of the cell cycle was determined by Expo32 ADC software (Coulter Corporation, Miami, Fla., 33196).
It has been shown that inhibition of the expression of the cyclin D1 gene causes arrest at the G1/S-phase of the cell cycle (Shintani et al., “Infrequent alternations of RB pathway (Rb-p16INK4A-cyclin D1) in adenoid cystic carcinoma of salivary glands,” Anticancer Res. 20:2169-75 (2000)). […] The cells were subsequently stained with propidium iodide (PI) and analyzed for DNA content by FACS cytofluorometry.

surviving protein = assay: Survivin immunofluorescence microscopy in SW480 cells; format: cell-based
[6] = target: β-catenin/CBP interaction (Homo sapiens, UniProt Q92793); details: Emami et al., Cancer Cell, in press; cited from earlier work
β-catenin/CBP interaction, sequence (Q92793 whole entry): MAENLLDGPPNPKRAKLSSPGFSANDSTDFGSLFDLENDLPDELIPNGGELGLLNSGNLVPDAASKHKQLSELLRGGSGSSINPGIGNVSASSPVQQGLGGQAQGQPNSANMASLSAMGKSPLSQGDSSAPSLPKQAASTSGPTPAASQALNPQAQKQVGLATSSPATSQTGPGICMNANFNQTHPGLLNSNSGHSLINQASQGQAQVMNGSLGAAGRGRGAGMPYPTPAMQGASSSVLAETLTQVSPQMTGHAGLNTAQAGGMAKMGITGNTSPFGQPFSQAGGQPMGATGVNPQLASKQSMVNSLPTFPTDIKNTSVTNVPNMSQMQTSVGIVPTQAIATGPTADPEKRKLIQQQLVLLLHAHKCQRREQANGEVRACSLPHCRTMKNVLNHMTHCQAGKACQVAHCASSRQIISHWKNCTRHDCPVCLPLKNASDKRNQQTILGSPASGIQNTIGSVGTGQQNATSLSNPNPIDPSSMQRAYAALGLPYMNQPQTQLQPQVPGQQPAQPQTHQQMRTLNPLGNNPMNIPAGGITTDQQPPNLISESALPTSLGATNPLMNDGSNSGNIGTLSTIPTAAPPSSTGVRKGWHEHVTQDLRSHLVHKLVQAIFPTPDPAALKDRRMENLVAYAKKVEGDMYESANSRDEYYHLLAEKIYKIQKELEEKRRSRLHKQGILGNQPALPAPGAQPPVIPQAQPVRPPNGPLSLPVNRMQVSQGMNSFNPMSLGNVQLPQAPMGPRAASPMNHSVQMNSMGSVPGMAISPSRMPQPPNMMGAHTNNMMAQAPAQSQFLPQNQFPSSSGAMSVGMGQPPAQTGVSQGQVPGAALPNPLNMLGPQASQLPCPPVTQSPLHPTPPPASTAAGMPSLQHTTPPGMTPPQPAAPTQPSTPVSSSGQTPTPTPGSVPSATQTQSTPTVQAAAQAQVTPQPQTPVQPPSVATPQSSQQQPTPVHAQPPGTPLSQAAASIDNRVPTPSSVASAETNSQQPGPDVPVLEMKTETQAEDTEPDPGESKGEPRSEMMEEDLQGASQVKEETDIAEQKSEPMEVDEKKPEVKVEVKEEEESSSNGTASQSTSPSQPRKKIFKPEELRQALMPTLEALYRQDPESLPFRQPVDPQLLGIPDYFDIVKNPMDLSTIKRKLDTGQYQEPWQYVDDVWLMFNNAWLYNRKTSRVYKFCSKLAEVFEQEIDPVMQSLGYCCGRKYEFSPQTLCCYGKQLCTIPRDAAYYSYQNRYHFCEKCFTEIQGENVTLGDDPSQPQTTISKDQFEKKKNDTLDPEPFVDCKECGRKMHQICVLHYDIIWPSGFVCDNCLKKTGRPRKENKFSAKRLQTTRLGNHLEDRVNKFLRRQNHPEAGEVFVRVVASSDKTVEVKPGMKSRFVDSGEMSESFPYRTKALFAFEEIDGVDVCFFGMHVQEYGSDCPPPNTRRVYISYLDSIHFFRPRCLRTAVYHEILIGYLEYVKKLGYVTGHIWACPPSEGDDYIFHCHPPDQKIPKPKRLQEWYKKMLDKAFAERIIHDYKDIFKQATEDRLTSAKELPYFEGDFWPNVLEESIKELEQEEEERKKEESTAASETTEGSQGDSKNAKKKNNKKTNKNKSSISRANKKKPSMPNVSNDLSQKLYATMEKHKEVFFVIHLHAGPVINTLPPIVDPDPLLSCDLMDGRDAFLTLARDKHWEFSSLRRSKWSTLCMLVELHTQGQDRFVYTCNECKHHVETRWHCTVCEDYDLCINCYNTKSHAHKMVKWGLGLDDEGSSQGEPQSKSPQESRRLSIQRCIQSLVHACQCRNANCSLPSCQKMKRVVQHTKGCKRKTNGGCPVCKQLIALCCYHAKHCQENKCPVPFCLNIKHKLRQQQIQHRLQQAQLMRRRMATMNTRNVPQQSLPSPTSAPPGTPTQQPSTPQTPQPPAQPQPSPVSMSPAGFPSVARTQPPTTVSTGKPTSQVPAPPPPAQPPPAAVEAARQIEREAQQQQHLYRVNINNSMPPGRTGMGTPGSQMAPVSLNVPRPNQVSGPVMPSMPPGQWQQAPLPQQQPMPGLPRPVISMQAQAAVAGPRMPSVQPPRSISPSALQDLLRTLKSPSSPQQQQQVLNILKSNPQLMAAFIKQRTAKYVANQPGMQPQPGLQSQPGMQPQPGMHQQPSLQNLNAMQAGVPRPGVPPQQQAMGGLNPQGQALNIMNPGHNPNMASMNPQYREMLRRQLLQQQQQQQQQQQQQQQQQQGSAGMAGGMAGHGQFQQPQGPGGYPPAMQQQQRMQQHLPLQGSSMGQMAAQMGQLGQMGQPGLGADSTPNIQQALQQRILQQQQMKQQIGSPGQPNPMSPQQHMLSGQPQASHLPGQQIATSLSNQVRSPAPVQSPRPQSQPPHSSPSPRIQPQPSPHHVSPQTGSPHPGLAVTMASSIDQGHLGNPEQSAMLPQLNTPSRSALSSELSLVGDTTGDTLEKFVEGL

## O=C1[C@H](Cc2ccc(O)cc2)N2C(=O)CCN(C(=O)NCc3ccccc3)[C@H]2CN1Cc1cccc2ccccc12 [Compound D]
Survivin promoter
  survivin expression (luciferase reporter): inhibit expression of surviving in SW480 cells
PCNA
  Ratio (Treated/DMSO Control) PCNA: 0.33
[1]
  percentage of cells bearing neurites greater than twice the length of the cell body: substantially increased the percentage of cells bearing neurites
[1]; 10 days
  neurite outgrowth and differentiation: essentially normal neurite outgrowth and differentiation
Antigen KI-67
  Ratio (Treated/DMSO Control) Antigen KI-67: 0.45
Cultured tumor cells [2]
  cell death: promote cell death
[3]
  TCF/β-catenin reporter gene transcription: decreased TCF/β-catenin reporter gene transcription
Cultured tumor cells [4]
  number of cells in G0 (FACS): increase the number of cells in G0
GADPH
  Ratio (Treated/DMSO Control) GADPH: 0.98
[5]
  EphB2 message (RT-PCR): increased EphB2 message
GADD-153
  Ratio (Treated/DMSO Control) GADD-153: 7.00
survivin
  Ratio (Treated/DMSO Control) Survivin: 0.30
SW480 cells
  cell cycle distribution (FACS, PI): increased accumulation at G1/S-phase of the cell cycle
Surviving protein
  survivin protein (immunofluorescence microscopy): little or no surviving protein was detected
[6]
  blocking of β-catenin/CBP interaction: selectively blocks the β-catenin/CBP interaction
